According to patent publication US8980901B2, “5-fluoro-3-phenyl-2[1-(9H-purin-6-ylamino)propyl]-3H-quinazolin-4-one and 6-fluoro-3-phenyl-2-[1-(9H-purin-6-ylamino)ethyl]-3H-quinazolin-4-one as inhibitors of human phosphatidylinositol 3-kinase delta” (Icos Corporation, priority 2004, dated 2015):

Tests used:
osteoclasts = assay: Osteoclast function (pit depth on dentine slices); assay type: cell-based, mouse; conditions: PI3K inhibitors 100 nM, 72 hr
Description: To analyze the effect of the present PI3Kδ inhibitor compounds on osteoclasts, mouse bone marrow cells are isolated and differentiated to osteoclasts by treating the cells with Macrophage Colony Stimulating Factor^−1 (mCSF^−1) and Osteoprotegerin Ligand (OPGL) in serum-containing medium (αMEM with 10% heat-inactivated FBS; Sigma) for 3 days. On day four, when the osteoclasts had developed, the medium is removed and cells are harvested. The osteoclasts are plated on dentine slices at 10^5 cells/well in growth medium, i.e., αMEM containing 1% serum and 2% BSA with […] OPGL and 10 ng/mL mCSF^−1. After 3 hr, the medium is changed to 1% serum and 1% BSA, with or without osteopontin (25 μg/mL) and the PI3K inhibitors (100 nM). The medium is changed every 24 hours with fresh osteopontin and the inhibitors. At 72 hr, the medium is removed, and the dentine surfaces are washed with water to remove cell debris and stained with acid hematoxylin. Excess stain is washed and the pit depths are quantitated using confocal microscopy.

neutrophil = conditions: cited from earlier work
Class I PI 3-kinases = conditions: read-out: IC50 values against each of these PI 3-kinases; cited from earlier work

COC[C@H]1OC(=O)c2coc3c2[C@@]1(C)C1=C(C3=O)[C@@H]2CCC(=O)[C@@]2(C)C[C@H]1OC(C)=O [wortmannin]
inhibition of osteoclast activity (osteoclasts): inhibited osteoclast activity | neutrophil migration (neutrophil): block | superoxide release (neutrophil): block

O=c1cc(N2CCOCC2)oc2c(-c3ccccc3)cccc12 [LY294002]
IC50 (Class I PI 3-kinases): ~1 µM | inhibition of osteoclast activity (osteoclasts): inhibited osteoclast activity | neutrophil migration (neutrophil): block | superoxide release (neutrophil): block
